For test [1], the system named is HL-1 myocytes. Briefly: Pacing-induced myolysis in HL-1 myocytes (myosin immunofluorescence). Format: cell-based, mouse. An excerpt:
(§1) The HL-1 atrial myocytes, developed from adult mouse atria^29 were obtained from Dr. William Claycomb (Louisiana State University, New Orleans, La., USA) and cultured as described before.^28
Lipofectamine (Life technologies, The Netherlands) was used for transient transfections according to instructions of the manufacturer. pHSP70-YFP encodes a functional human HSP70 fused to YFP under control of a CMV promoter. pHSP27 encodes human HSP27 under control of CMV promoter. […]
After subjecting HL-1 myocytes to rapid pacing, the cells were fixed for 10 minutes in 100% methanol (−20° C.), dried and blocked in 5% BSA (20 minutes room temperature). […] Images of FITC, YFP or CY3 and DAPI fluorescence were obtained by using a Leica confocal laser-scanning microscope (Leica TCS SP2).
For the quantification of the amount of myolysis, at least 5 fields were examined with to a total amount of 250-500 myocytes, and myosin disruption (characteristic for myolysis^12) was scored by three independent observers blinded for the experimental groups. […]

Test [2] concerns HL-1 cells. Nature of the test: Calcium transients and cell shortening in tachypaced HL-1 cells. Format: cell-based, mouse. The method, then:
In addition to myolysis, we studied the effects of short-term tachypacing of HL-1 cells (3 Hz for 2, 3 and 4 hrs) on Ca^2+ transients (CaTs) and cell shortening (CS) in HL-1 cells, with and without pre-treatment to induce HSP expression: the heat shock stress response inducer geranylgeranylacetone (GGA, 10 μM) or heat shock at 43° C. for 20 minutes (HS) or transient transfection with human HSP27 (pHSP27). In brief, myocytes were field-stimulated with 10-ms twice-threshold strength square-wave pulses. CS was measured with a video edge-detector connected to a charge-coupled device. To record CaTs, myocytes were incubated with indo-1 AM (5-μM) for 5-7 min. Myocytes were then superfused at room temperature for at least 40 min to wash out extracellular indicator and to allow for deesterification. Background and cell autofluorescence were cancelled by zeroing the photomultiplier output in a cell without indo-1 loading. Ultraviolet light from a 100-W mercury arc lamp passing through a 340-nm interference filter (±10 nm bandwidth) was reflected by a dichroic mirror into a ×40 oil-immersion fluor objective for excitation of intracellular indo-1 (excitation beam ˜15 μm diameter). Exposure of the cell to UV light (5-10 of every 30-60 s) was controlled by an electronic shutter (Optikon, model T132) to minimize photobleaching. Emitted light (<550 nm) was reflected into a spectral separator, passed through parallel filters at 400 and 500 nm (+10 nm), detected by matched photomultiplier-tubes (Hamamatsu R2560 HA) and electronically filtered at 60 Hz. The ratio of fluorescence signals (R400/500) was digitized (1 kHz) and used as the index of [Ca^2+]i^(48).

Test [3] concerns HL-1 cells. Nature of the test: Calcium current density (ICa++) in paced HL-1 cells. As to conditions: HL-1 cells paced for 4 h; GGA two hours prior to and during pacing; FIG. 5. Format: cell-based, mouse. The method, then:
I-V relationships of peak ICα++ in non-paced (CON) and paced (PC) HL-1 cells. ICα++ was recorded using 300-ms voltage steps to between −70 and +70 mV from −80 mV.

In test [4] the test system is HSP27 and HSP70 expression in HL-1 myocytes. Nature of the test: HSP expression in paced HL-1 myocytes (Western blot). Format: cell-based, mouse. As to conditions: 0.1 μM GGA two hours prior to and during pacing, FIG. 3A. The method, then: as §1
HL-1 myocytes (≧1×10^6 myocytes) were cultured on coverslips and subjected to a 10-fold rate increase (rapid pacing) by electrical field stimulation (5 Hz, 1.5 V/cm field strength; Grass S88 stimulator).^28 Elevation of HSP expression in cultured myocytes was accomplished in 3 ways: (I) by subjection to a modest heat stress at 43° C. for 30 min followed by overnight incubation at 37° C., (II) by incubation with 0.1 μM geranylgeranylacetone (GGA, gift from M. Kawai, Japan) two hours prior to and during pacing and (III) by transfection of pHSP70-YFP or pHSP27 24 hrs prior to pacing.
For Western-blot analysis, frozen RAAs and LAAs were used for protein isolation as described previously.^6 For the isolation of proteins from HL-1 myocytes, the cells were lysed by the addition of SDS-PAGE sample buffer followed by sonication before separation on 10% PAA-SDS gels (1.10^5 cells/slot). […] Signals were detected by the ECL-detection method (Amersham, The Netherlands) and quantified by densitometry. […]

The subject of test [5] is dogs subjected to atrial tachypacing. Briefly: Atrial tachycardia-induced remodeling in dogs (atrial tachypacing). Format: in vivo, dog. As to conditions: ATP 400 bpm for 7 days. The method, then: The effect of HSP induction on in vivo AF-promotion was examined studying the effect of GGA on atrial tachycardia-induced remodeling in dogs (49). Dogs were subjected to atrial tachypacing (ATP) at 400 bpm for 7 days in the absence (ATP, n=5) and presence of oral GGA treatment (120 mg/kg/day, n=3), starting 3 days prior to ATP onset and continued throughout ATP. Results were compared to a non-paced control group (NP, n=5 dogs). Mongrel dogs (20 to 37 kg) were anesthetized with ketamine (5.3 mg/kg IV), diazepam (0.25 mg/kg IV), and halothane (1.5%). Unipolar leads were inserted through jugular veins into the right ventricular (RV) apex and right atrial (RA) appendage and connected to pacemakers (Medtronic) in subcutaneous pockets in the neck. A bipolar electrode was inserted into the RA for stimulation and recording during serial electrophysiological study (EPS). AV block was created by radiofrequency ablation to control ventricular response during atrial tachypacing (ATP). The RV pacemaker was programmed to 80 bpm. For open-chest EPS, dogs were anesthetized with morphine (2 mg/kg SC) and α-chloralose (120 mg/kg IV, followed by 29.25 mg·kg^−1·h^−1), and ventilated mechanically. Body temperature was maintained at 37° C., and a femoral artery and both femoral veins were cannulated for pressure monitoring and drug administration. A median sternotomy was performed, and bipolar electrodes were hooked to the RA and left atrial (LA) appendages for recording and stimulation. A programmable stimulator (Digital Cardiovascular Instruments) was used to deliver twice-threshold currents. Five silicon sheets containing 240 bipolar electrodes were sutured onto the atrial surfaces as previously described.^6-8http://circ.ahajournals.org/cgi/content/full/110/16/2313-R7-155347http://circ.ahajournals.org/cgi/content/full/110/16/2313-R8-155347 Atrial effective refractory periods (ERPs) were measured at multiple basic cycle lengths (BCLs) in the RA and LA appendages. AF vulnerability was determined as the percentage of atrial sites at which AF could be induced by single extrastimuli. After 24 hours for recovery, a baseline closed-chest EPS was performed under ketamine/diazepam/isoflurane anesthesia, and then ATP (400 bpm) was initiated. Closed-chest EPS was repeated at day 7 of ATP, and a final open-chest EPS was performed under morphine/α-chloralose anesthesia.

Consider 1 substance from patent US20080161258A1, “Hsp and Supraventricular Arrhythmia” (priority 2004, published 2008).

“Also recorded” adds a separate entry of the source.

On to geranylgeranylacetone [GGA], for which, in test [1] (16 hrs paced HL-1 myocytes, FIG. 3B), the “Immunofluorescent staining of myosin in paced myocytes” value is reported as “myosin-staining remains diffusely distributed in the cytoplasm”. The pacing-induced myolysis entry in test [1] (HL-1 myocytes, rapid pacing 5 Hz, GGA 0.1 μM two hours prior to and during pacing, or transfection 24 hrs prior to pacing) is given as “significant reduction”. Moreover, the “pacing-induced CaT and CS reductions” value in test [2] (HL-1 cells tachypaced 3 Hz for 2, 3 and 4 hrs, GGA 10 μM or transient transfection with pHSP27) is given as “significantly prevented”. The “reduction of Ca2+ transients (CaT) after pacing” value in test [2] (HL-1 cells, 3 Hz, 2 hrs pacing, GGA 10 μM, p=0.01 vs tachypaced without GGA) is given as 2%±6%. In test [2] (HL-1 cells, 3 Hz, 2 hrs pacing, GGA 10 μM, p=0.03 vs tachypaced without GGA), the “reduction of cell-shortening (CS) after pacing” value is on record as 11%±3%. Further, the “pacing-induced reduction of calcium current density (Ica++)” value in test [3] is reported as “the reduction was prevented; also recorded: strongly”. Also, in test [4], the HSP27 expression result was “substantial elevations; also recorded: induces the expression” and the HSP70 expression result was “substantial elevations; also recorded: induces the expression”. The “ATP-induced changes (DAF, ERP, vulnerability)” value in test [5] (oral GGA 120 mg/kg/day) is listed as “almost completely suppressed”. Besides, in test [5] (oral GGA 120 mg/kg/day starting 3 days prior to ATP, p<0.05 vs ATP), the “duration of induced AF (DAF)” value turned out to be 39 ± 15 s. For the same substance, the “atrial effective refractory period (ERP)” value in test [5] (oral GGA 120 mg/kg/day, basic cycle length 300 ms, p<0.05 vs ATP) was 102 ± 3 ms. In addition, in test [5] (oral GGA 120 mg/kg/day, p<0.05 vs ATP), the “atrial vulnerability to AF (% of atrial sites in which AF was induced by a single extra stimulus)” value was determined as 13±7%.
